Measured values: ChEMBL document CHEMBL1150497, “Imidazol-1-ylalkanoate esters and their corresponding acids. A novel series of extrinsic 1H NMR probes for intracellular pH” (Bioorg Med Chem Lett, 1992)

Test: pKa value by 1H NMR spectroscopy
Format: physicochemical

| pKa | Compound |
| --- | --- |
| 5.02 | CCOC(=O)C(C(=O)OCC)n1ccnc1 |
| 6.02 | CCOC(=O)CC(C(=O)OCC)n1ccnc1 (centres undefined) |
| 6.86 | CCOC(=O)CC(C(=O)O)n1ccnc1 (centres undefined) |
| 6.45 | CCOC(=O)CC(CC(=O)OCC)n1ccnc1 |

The next lines start with the compound.

| Compound | pKa |
| --- | --- |
| O=C(O)CC(C(=O)O)n1ccnc1 (centres undefined) | 7.32 |
| O=C(O)CC(CC(=O)O)n1ccnc1 | 7.37 |
| O=C(O)Cn1ccnc1 | 7.23 |
| COC(=O)Cn1ccnc1 | 7.1 |
| c1c[nH]cn1 [IMIDAZOLE] | 7.14 |
